Data reported in patent EP4722201A1, “3-PHENYLISOXAZOLINE-5-CARBOXAMIDE COMPOUND, AND PREPARATION METHOD THEREFOR, HERBICIDAL COMPOSITION THEREOF AND USE THEREOF” (Jiangsu Flag Chemical Industry Co., Ltd, priority 2023, dated 2024).

Columns and labels:
Assay in all cases: Indoor herbicide activity determination, Seed Treatment; pre-emergence (soil spray)
Assay type in all cases: in vivo
Aegilops tauschii = details: read-out: Herbicidal activities (inhibition rate) Aegilops tauschii; for inhibition at 120 g/ha: 120 g a.i./ha; for inhibition at 60 g/ha: 60 g a.i./ha
Outline: (§1)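 Weed seeds were sown in 7 cm pots of sandy nutrient soil (pH 6.1, 1% organic matter), covered, bottom-watered and held 24 h in a constant-temperature illuminated room before the soil surface was sprayed in a traveling spray tower. Fresh-weight inhibition versus untreated plants was scored 21 days later.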

Alopecurus japonicus = system: Alopecurus japonicus
Outline: as §1

Alopecurus myosuroides = system: Alopecurus myosuroides
Outline: as §1

Cyperus iria = details: read-out: Herbicidal activities (inhibition rate) Cyperus iria; for inhibition at 120 g/ha: 120 g a.i./ha; for inhibition at 60 g/ha: 60 g a.i./ha
Outline: as §1

Digitaria sanguinalis = details: read-out: Herbicidal activities (inhibition rate) Digitaria sanguinalis; for inhibition at 120 g/ha: 120 g a.i./ha; for inhibition at 60 g/ha: 60 g a.i./ha
Outline: as §1

Eclipta prostrata = details: read-out: Herbicidal activities (inhibition rate) Eclipta prostrata; for inhibition at 120 g/ha: 120 g a.i./ha; for inhibition at 60 g/ha: 60 g a.i./ha
Outline: as §1

Eleusine indica = system: Eleusine indica
Outline: as §1

Leptochloa chinensis = system: Leptochloa chinensis
Outline: as §1

Lolium multiflorum = system: Lolium multiflorum
Outline: as §1

Row | SMILES | inhibition at 120 g/ha (Aegilops tauschii) [%] | Herbicidal activities, Alopecurus japonicus (inhibition rate class) (Alopecurus japonicus; Dosage 240 g a.i./ha) | Herbicidal activities, Alopecurus myosuroides (inhibition rate class) (Alopecurus myosuroides; Dosage 240 g a.i./ha) | inhibition at 120 g/ha (Cyperus iria) [%] | inhibition at 120 g/ha (Digitaria sanguinalis) [%] | inhibition at 120 g/ha (Eclipta prostrata) [%] | Herbicidal activities, Leptochloa chinensis (inhibition rate class) (Leptochloa chinensis; Dosage 240 g a.i./ha) | Herbicidal activities, Lolium multiflorum (inhibition rate class) (Lolium multiflorum; Dosage 240 g a.i./ha) | inhibition at 60 g/ha (Aegilops tauschii) [%] | Herbicidal activities, Alopecurus japonicus (inhibition rate class) (Alopecurus japonicus; Dosage 120 g a.i./ha) | Herbicidal activities, Alopecurus myosuroides (inhibition rate class) (Alopecurus myosuroides; Dosage 120 g a.i./ha) | inhibition at 60 g/ha (Cyperus iria) [%] | inhibition at 60 g/ha (Digitaria sanguinalis) [%] | inhibition at 60 g/ha (Eclipta prostrata) [%] | Herbicidal activities, Eleusine indica (inhibition rate class) (Eleusine indica; Dosage 120 g a.i./ha) | Herbicidal activities, Leptochloa chinensis (inhibition rate class) (Leptochloa chinensis; Dosage 120 g a.i./ha) | other results
1 | C=CC1(C(=O)N[C@H]2CO[C@@H](C(=O)OC)C2)CC(c2cc(Cl)cc(OC(F)F)c2)=NO1 (mixture of isomers) [I-373] | 60 to 80 | A (A indicates that the inhibition rate was greater than or equal to 80% to 100%) | A (A indicates that the inhibition rate was greater than or equal to 80% to 100%) | 60 to 80 | 80 to 100 | 80 to 100 | A (A indicates that the inhibition rate was greater than or equal to 80% to 100%) | A (A indicates that the inhibition rate was greater than or equal to 80% to 100%) | – | – | – | – | – | – | – | – | Herbicidal activities, Eleusine indica (inhibition rate class) (Eleusine indica; Dosage 240 g a.i./ha): B (B indicates that the inhibition rate was greater than or equal to 60% to less than 80%)
2 | C#CCOC(=O)[C@H]1C[C@@H](NC(=O)[C@@]2(C(F)(F)F)CC(c3cc(F)cc(OC(F)(F)F)c3)=NO2)C1 [I-255] | – | – | – | – | – | – | – | – | 80 to 100 | A (A indicates that the inhibition rate was greater than or equal to 80% to 100%) | A (A indicates that the inhibition rate was greater than or equal to 80% to 100%) | 80 to 100 | 60 to 80 | 60 to 80 | A (A indicates that the inhibition rate was greater than or equal to 80% to 100%) | A (A indicates that the inhibition rate was greater than or equal to 80% to 100%) | –
3 | COC(=O)C1CC(NC(=O)C2(C(F)(F)F)CC(c3cc(Cl)cc(C(F)(F)F)c3)=NO2)CO1 (stereo not shown) [I-399] | 80 to 100 | B (B indicates that the inhibition rate was greater than or equal to 60% to less than 80%) | A (A indicates that the inhibition rate was greater than or equal to 80% to 100%) | 60 to 80 | 80 to 100 | 60 to 80 | A (A indicates that the inhibition rate was greater than or equal to 80% to 100%) | B (B indicates that the inhibition rate was greater than or equal to 60% to less than 80%) | – | – | – | – | – | – | – | – | –
4 | C=C[C@]1(C(=O)N[C@H]2C=C[C@@H](C(=O)OCC)C2)CC(c2cc(F)cc(C(F)(F)F)c2)=NO1 [I-429] | – | – | – | – | – | – | – | – | 60 to 80 | A (A indicates that the inhibition rate was greater than or equal to 80% to 100%) | A (A indicates that the inhibition rate was greater than or equal to 80% to 100%) | 60 to 80 | 60 to 80 | 60 to 80 | A (A indicates that the inhibition rate was greater than or equal to 80% to 100%) | A (A indicates that the inhibition rate was greater than or equal to 80% to 100%) | Herbicidal activities, Lolium multiflorum (inhibition rate class) (Lolium multiflorum; Dosage 120 g a.i./ha): A (A indicates that the inhibition rate was greater than or equal to 80% to 100%)
5 | C=C[C@]1(C(=O)N[C@H]2C=C[C@@H](C(=O)OC(C)C)C2)CC(c2cc(F)cc(OC(F)(F)F)c2)=NO1 [I-463] | – | – | – | – | – | – | – | – | 60 to 80 | – | – | 60 to 80 | 60 to 80 | 60 to 80 | – | – | Herbicidal activity (inhibition rate class), Alopecurus japonicus (Alopecurus japonicus; Dosage 120 g a.i./ha): A (A indicates that the inhibition rate was greater than or equal to 80% to 100%); Herbicidal activity (inhibition rate class), Alopecurus myosuroides (Alopecurus myosuroides; Dosage 120 g a.i./ha): A (A indicates that the inhibition rate was greater than or equal to 80% to 100%); Herbicidal activity (inhibition rate class), Eleusine indica (Eleusine indica; Dosage 120 g a.i./ha): A (A indicates that the inhibition rate was greater than or equal to 80% to 100%); Herbicidal activity (inhibition rate class), Leptochloa chinensis (Leptochloa chinensis; Dosage 120 g a.i./ha): A (A indicates that the inhibition rate was greater than or equal to 80% to 100%); Herbicidal activity (inhibition rate class), Lolium multiflorum (Lolium multiflorum; Dosage 120 g a.i./ha): A (A indicates that the inhibition rate was greater than or equal to 80% to 100%)
6 | CC1(C(=O)N[C@H]2C=C[C@@H](C(=O)O)C2)CC(c2cc(Cl)cc(OC(F)(F)F)c2)=NO1 (stereo partly shown) [I-485] | 80 to 100 | – | – | 80 to 100 | 60 to 80 | 80 to 100 | – | – | – | – | – | – | – | – | – | – | Herbicidal activity (inhibition rate class), Alopecurus japonicus (Alopecurus japonicus; Dosage 240 g a.i./ha): A (A indicates that the inhibition rate was greater than or equal to 80% to 100%); Herbicidal activity (inhibition rate class), Alopecurus myosuroides (Alopecurus myosuroides; Dosage 240 g a.i./ha): A (A indicates that the inhibition rate was greater than or equal to 80% to 100%); Herbicidal activity (inhibition rate class), Eleusine indica (Eleusine indica; Dosage 240 g a.i./ha): A (A indicates that the inhibition rate was greater than or equal to 80% to 100%); Herbicidal activity (inhibition rate class), Leptochloa chinensis (Leptochloa chinensis; Dosage 240 g a.i./ha): A (A indicates that the inhibition rate was greater than or equal to 80% to 100%); Herbicidal activity (inhibition rate class), Lolium multiflorum (Lolium multiflorum; Dosage 240 g a.i./ha): A (A indicates that the inhibition rate was greater than or equal to 80% to 100%)
